For one experiment, the target named is T1, Cathepsin K (Homo sapiens, UniProt P43235).
T1 sequence (P43235 115-329): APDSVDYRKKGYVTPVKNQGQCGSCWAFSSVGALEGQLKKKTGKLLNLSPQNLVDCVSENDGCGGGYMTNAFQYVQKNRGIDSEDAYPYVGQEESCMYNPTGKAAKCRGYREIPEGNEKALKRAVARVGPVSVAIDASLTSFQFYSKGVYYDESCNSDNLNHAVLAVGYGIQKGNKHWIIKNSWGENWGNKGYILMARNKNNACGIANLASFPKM
Kind of experiment: Measurement of Cathepsin K inhibitory activity. In kind it is biochemical. The following applies: Dixon plot, pH 5.5, 37° C. Here is the method:
(i) Measurement of Cathepsin K Inhibitory Activity
65 μL of Cathepsin K enzyme reaction buffer (50 mmol/L of 2-(N-morpholino)ethanesulfonate, 2 mmol/L of ethylenediamine tetraacetate (EDTA) and 4 mmol/L of dithiothreitol (DTT) were mixed to adjust to pH 5.5), 5 μL of cysteine protease inhibitor solution of several concentrations, 20 μL of synthesized substrate (t-butyloxycarbonyl-L-alanyl-glycyl-L-prolyl-L-arginine-4-methyl-chromanyl-7-amide) solution of several concentrations and 10 μL of cathepsin K enzyme solution were mixed and the increase of fluorescence intensity when reacted at 37° C. was measured (λ ex (excitation wavelength)=355 nm, λ em (fluorescence wavelength)=460 nm). As to the substrate and the compound of the present invention, enzyme reactions were carried out in combination of several appropriate concentrations and Dixon plotting was prepared, to define the absolute value of X-coordinate of the intersection point of the graph as Ki value.

In another experiment the target is cathepsin S (Homo sapiens, UniProt P25774). Nature of the experiment: Measurement of Cathepsin S inhibitory activity. It counts as biochemical. The following applies: pH 6.5, 37° C. Here is the method: (iii) Measurement of Cathepsin S Inhibitory Activity
Sequence of cathepsin S (P25774 115-331, species assumed): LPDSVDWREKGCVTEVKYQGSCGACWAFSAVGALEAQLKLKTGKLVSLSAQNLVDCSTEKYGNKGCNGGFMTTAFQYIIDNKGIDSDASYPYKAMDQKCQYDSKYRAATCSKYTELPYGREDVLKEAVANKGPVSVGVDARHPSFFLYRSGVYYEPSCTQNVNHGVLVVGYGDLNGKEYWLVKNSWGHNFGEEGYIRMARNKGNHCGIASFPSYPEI
10 μL of synthesized substrate (carbobenzoxy-L-leucyl-L-leucyl-L-arguinine-4-methyl-chromanyl-7-amide) solution and 5 μL of cysteine protease inhibitor solution of several concentrations, 75)L of cathepsin S enzyme reaction buffer (100 mmol/L of sodium phosphate, 2 mmol/L of EDTA, 2 mmol/L of DTT were mixed to adjust to pH 6.5) and 10 μL of cathepsin S enzyme solution were mixed and the increase of fluorescence intensity was measured (λ ex(excitation wavelength)=355 nm, λ em (fluorescence wavelength)=460 nm) when reacted at 37° C.

pKi: −log10 of the molar value.

For orientation: pKi means −log10 of the Ki, conventionally taken in molar units. The inhibition is the change of the read-out against control, counted positive when it falls. A higher inhibition goes with strong suppression.

`CC(C)C[C@H](NC(=O)[C@H](CC(C)C)NC(=O)OCc1ccccc1)C(=O)Cn1nnc(-c2c(F)c(F)c(F)c(F)c2F)n1` [example 1(40), 2(S)-N-[3(S)-1-(5-(perfluorophenyl)tetrazol-2-yl)-2-oxo-5-methyl-3-hexyl]-2-benzyloxycarbonylamino-4-methylpentanamide]: at Cathepsin K, the pKi is 7.68.

As for `CC(C)C[C@H](NC(=O)[C@H](CC(C)C)NC(=O)OCc1ccccc1)C(=O)Cn1c(-c2ccc(F)cc2)noc1=O` [example 3(7), 2(S)-N-[3(S)-1-(5-oxo-3-(4-fluorophenyl)-1,2,4-oxadiazolin-4-yl)-2-oxo-5-methyl-3-hexyl]-2-benzyloxycarbonylamino-4-methylpentanamide], on Cathepsin K, the pKi was 7.44.

`CC(C)C[C@H](NC(=O)[C@H](CC(C)C)NC(=O)OCc1ccccc1)C(=O)Cn1nc(CCc2ccccc2)oc1=O` [example 3(17), 2(S)-N-[3(S)-1-(5-oxo-2-(2-phenylethyl)-1,3,4-oxadiazolin-4-yl)-2-oxo-5-methyl-3-hexyl]-2-benzyloxycarbonylamino-4-methylpentanamide] displayed an inhibition at 1 µM at cathepsin S of 90%.

(Values after patent US7390804B2, “N-containing five-membered ring compounds and pharmaceutical agents comprising the same as active ingredient” (Ono Pharmaceutical Co., Ltd., priority 2000, dated 2008).)
